In ChEMBL document CHEMBL5053528, “Discovery of 2-(Ortho-Substituted Benzyl)-Indole Derivatives as Potent and Orally Bioavailable RORγ Agonists with Antitumor Activity” (J Med Chem, 2021):

Tests used:
[1] = biological target: T1, Nuclear receptor ROR-gamma (Homo sapiens, UniProt P51449); assay: Antagonist activity at human RORgamma in cytostim stimulated human PBMC cells assessed as decrease in differentiation of TH17 cells by measuring IL-17 production preincubated with cytostim for 72 hrs by ELISA; format: cell-based
T1 sequence (P51449 whole entry): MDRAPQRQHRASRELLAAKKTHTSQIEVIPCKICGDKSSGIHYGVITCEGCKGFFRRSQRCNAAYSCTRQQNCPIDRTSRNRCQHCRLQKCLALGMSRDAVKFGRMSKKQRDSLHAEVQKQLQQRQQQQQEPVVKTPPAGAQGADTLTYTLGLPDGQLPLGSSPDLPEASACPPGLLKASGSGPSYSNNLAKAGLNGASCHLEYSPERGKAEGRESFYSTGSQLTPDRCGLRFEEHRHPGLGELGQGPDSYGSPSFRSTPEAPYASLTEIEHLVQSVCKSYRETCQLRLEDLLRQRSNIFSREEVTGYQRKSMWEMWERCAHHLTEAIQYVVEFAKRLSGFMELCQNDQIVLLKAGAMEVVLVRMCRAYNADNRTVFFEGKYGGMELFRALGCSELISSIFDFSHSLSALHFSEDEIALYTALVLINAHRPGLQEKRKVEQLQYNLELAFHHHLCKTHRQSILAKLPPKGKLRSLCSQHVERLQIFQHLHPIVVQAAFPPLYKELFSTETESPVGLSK

[2] = biological target: T1, Nuclear receptor ROR-gamma; assay: Antagonist activity at N-terminal GST tagged human RORgamma LBD using fluorescein-D22 as coactivator incubated for 60 mins by Lanthascreen TR-FRET assay
[3] = Microsomal stability in rat liver microsomes assessed as half life; format: ADME, Microsome
[4] = biological target: T2, Nuclear receptor ROR-gamma (Homo sapiens) (UniProt P51449); assay: Inverse agonist activity at human RORgamma in cytostim stimulated human PBMC cells assessed as […] in IL-17 production by measuring maximal efficacy preincubated with cytostim for 72 hrs by ELISA relative to control; format: cell-based; settings: filed as inverse agonist
T2 sequence (whole entry): T1 sequence (P51449 whole entry)

[5] = Microsomal stability in human liver microsomes assessed as half life; format: ADME, Microsome
[6] = Half life in rat at 1 mg/kg, iv; format: ADME, organism-based; settings: in vivo
[7] = AUC (0 to t) in mouse at 2 mg/kg, po; format: ADME, organism-based; set-up: dose 2 mg/kg, route po; settings: in vivo
[8] = Volume of distribution in dog at 2 mg/kg, po; format: ADME, organism-based, Canis lupus familiaris; settings: in vivo
[9] = Cmax in mouse at 2 mg/kg, po; format: ADME, organism-based; set-up: dose 2 mg/kg, route po; settings: in vivo
[10] = Drug metabolism in rat liver microsomes assessed as amide hydrolysis metabolite formation at 1 mg/kg, iv; format: ADME, Microsome
[11] = Oral bioavailability in rat; format: ADME, organism-based; settings: in vivo
[12] = Half life in dog at 2 mg/kg, po; format: ADME, organism-based, Canis lupus familiaris; settings: in vivo
[13] = AUC (0 to t) in dog at 2 mg/kg, po; format: ADME, organism-based, Canis lupus familiaris; set-up: dose 2 mg/kg, route po; settings: in vivo
[14] = Volume of distribution in mouse at 2 mg/kg, po; format: ADME, organism-based; settings: in vivo
[15] = Cmax in dog at 2 mg/kg, po; format: ADME, organism-based, Canis lupus familiaris; set-up: dose 2 mg/kg, route po; settings: in vivo
[16] = AUC (0 to t) in rat at 1 mg/kg, iv; format: ADME, organism-based; set-up: dose 1 mg/kg, route iv; settings: in vivo
[17] = AUC (0 to t) in mouse at 1 mg/kg, iv; format: ADME, organism-based; set-up: dose 1 mg/kg, route iv; settings: in vivo
[18] = Half life in dog at 0.5 mg/kg, iv; format: ADME, organism-based, Canis lupus familiaris; settings: in vivo
[19] = Drug metabolism in dog liver microsomes assessed as amide hydrolysis metabolite formation at 1 mg/kg, iv; format: ADME, Canis lupus familiaris, Microsome
[20] = AUC (0 to t) in rat at 2 mg/kg, po; format: ADME, organism-based; set-up: dose 2 mg/kg, route po; settings: in vivo
[21] = Drug metabolism in dog plasma assessed as amide hydrolysis metabolite formation at 1 mg/kg, iv; format: ADME, organism-based, Canis lupus familiaris; settings: in vivo
[22] = Half life in mouse at 2 mg/kg, po; format: ADME, organism-based; settings: in vivo
[23] = Volume of distribution in rat at 1 mg/kg, iv; format: ADME, organism-based; settings: in vivo
[24] = Cmax in rat at 2 mg/kg, po; format: ADME, organism-based; set-up: dose 2 mg/kg, route po; settings: in vivo
[25] = Drug metabolism in rat plasma assessed as amide hydrolysis metabolite formation at 1 mg/kg, iv; format: ADME, organism-based; settings: in vivo
[26] = Clearance in dog at 0.5 mg/kg, iv; format: ADME, organism-based, Canis lupus familiaris; settings: in vivo
[27] = Oral bioavailability in mouse; format: ADME, organism-based; settings: in vivo
[28] = Oral bioavailability in dog; format: ADME, organism-based, Canis lupus familiaris; settings: in vivo
[29] = Clearance in mouse at 1 mg/kg, iv; format: ADME, organism-based; settings: in vivo
[30] = Clearance in rat at 1 mg/kg, iv; format: ADME, organism-based; settings: in vivo
[31] = Volume of distribution in mouse at 1 mg/kg, iv; format: ADME, organism-based; settings: in vivo, read-out: Vd
[32] = biological target: T1, Nuclear receptor ROR-gamma; assay: Agonist activity at human RORgamma in cytostim stimulated human PBMC cells assessed as increase in differentiation of TH17 cells by measuring IL-17 production preincubated with cytostim for 72 hrs by ELISA; format: cell-based
[33] = biological target: T1, Nuclear receptor ROR-gamma; assay: Agonist activity at N-terminal GST tagged human RORgamma LBD using fluorescein-D22 as coactivator incubated for 60 mins by Lanthascreen TR-FRET assay
[34] = Volume of distribution in dog at 0.5 mg/kg, iv; format: ADME, organism-based, Canis lupus familiaris; settings: in vivo
[35] = Half life in mouse at 1 mg/kg, iv; format: ADME, organism-based; settings: in vivo
[36] = AUC (0 to t) in dog at 0.5 mg/kg, iv; format: ADME, organism-based, Canis lupus familiaris; set-up: dose 0.5 mg/kg, route iv; settings: in vivo

CCS(=O)(=O)c1ccc(CNC(=O)c2ccc3c(c2)cc(Cc2cccc(C(F)(F)F)c2)n3C(C)C)cc1
EC50 [1]: 0.019 µM
EC50 [2]: 0.01 µM
half-life [3]: 0.317 h
Emax [4]: 93%
half-life [5]: 0.333 h

CCS(=O)(=O)c1ccc(CNC(=O)c2ccc3c(c2)cc(Cc2ccccc2C)n3C(C)C)cc1
EC50 [2]: 0.044 µM

CCS(=O)(=O)c1ccc(CNC(=O)c2ccc3c(c2)cc(Cc2ccccc2)n3C(C)C)cc1
EC50 [2]: 0.683 µM

CCS(=O)(=O)c1ccc(CNC(=O)c2ccc3c(c2)cc(Cc2ccc(Cl)cc2C(F)(F)F)n3CCF)cc1
half-life [6]: 0.86 h
AUC(0-t) [7]: 18.9 µg·h/mL
Vd [8]: 73.7 L/kg
Cmax [9]: 3.27 µg/mL
Drug metabolism [10]: Metabolite_Detected
bioavailability [11]: 0.673%
half-life [12]: 2.14 h
AUC(0-t) [13]: 0.103 µg·h/mL
Vd [14]: 0.569 L/kg
Cmax [15]: 0.0559 µg/mL
AUC(0-t) [16]: 0.277 µg·h/mL
half-life [3]: 2.1 h
AUC(0-t) [17]: 20 µg·h/mL
half-life [18]: 0.876 h
Drug metabolism [19]: Metabolite_Detected
AUC(0-t) [20]: 0.00373 µg·h/mL
Drug metabolism [21]: Metabolite_Detected
half-life [22]: 3.72 h
Vd [23]: 4.48 L/kg
Cmax [24]: 0.0064 µg/mL
Drug metabolism [25]: Metabolite_Detected
clearance [26]: 1.63 L/h/kg
bioavailability [27]: 47.3%
bioavailability [28]: 8.33%
clearance [29]: 0.05 L/h/kg
clearance [30]: 3.61 L/h/kg
Vd [31]: 0.193 L/kg
EC50 [32]: 0.002 µM
EC50 [33]: 0.002 µM
Vd [34]: 2.05 L/kg
half-life [5]: 2.88 h
half-life [35]: 2.67 h
AUC(0-t) [36]: 0.309 µg·h/mL

CCS(=O)(=O)c1ccc(CNC(=O)c2ccc3c(c2)cc(Cc2ccc(Cl)cc2C(F)(F)F)n3C2CC2)cc1
half-life [3]: 1.7 h
half-life [5]: 2.32 h

CCS(=O)(=O)c1ccc(CNC(=O)c2ccc3c(c2)cc(Cc2ccc(F)cc2C(F)(F)F)n3C(C)C)cc1
half-life [3]: 1.07 h
EC50 [32]: 0.017 µM
EC50 [33]: 0.014 µM
half-life [5]: 1.2 h
